Experimental findings from patent US20120165319A1, “INHIBITORS OF INTERLEUKIN-1 BETA CONVERTING ENZYME” (VERTEX PHARMACEUTICALS INCORPORATED, priority 1995, published 2012) are described below.

The nature of data set [1]: Pharmacokinetic studies in the mouse (i.v. clearance, plasma levels). The following applies: 25 mg/kg; for clearance: CD-1, plasma. The class given is in vivo. In a few lines:
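Male CD-1 mice (26-31 g) given 25 mg/kg i.v. via tail vein in 0.02M Tris (2.5 mg/ml), groups of 5 per timepoint from 2 to 120 min. Heparinized plasma deproteinated (perchloric acid or acetonitrile) and analysed by reverse-phase HPLC with UV or MS detection against plasma-spiked calibration (0.5 to 50 μg/ml).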

Data set [2] relates to IL-1β, human peripheral blood mononuclear cells (PBMC). In words: PBMC cell assay: IL-1β assay with human PBMC or enriched adherent mononuclear cells, LPS-stimulated. It counts as cell-based. The procedure, abridged:
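Mature IL-1β is measured by ELISA in supernatants after 16–18 hr at 37 °C, 5% CO2, with LPS (5 ng/ml final) and test compound (0.1% DMSO final). Cells are human PBMC (6×10^6 cells/ml) or plate-adherent mononuclear cells (2.5−3.0×10^5 per well), and the 5–6 compound concentrations span the ICE Ki.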

The test system of data set [3] is IL-1β production, LPS-challenged mice. In words: In vivo acute assay for efficacy as anti-inflammatory agent: LPS-induced IL-1β production in mice. On the set-up: species or system mouse. The procedure, abridged:
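Serum IL-1β was measured by ELISA 7 h after an IP dose of 20 mg/kg LPS in CD1 mice, n=6 per group. Compounds in olive oil/DMSO/ethanol 90:5:5 were injected IP 1 h post-LPS (some analogs were dosed at challenge), and separate groups received 50 mg/kg by oral gavage.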

Where [4] appears, read: Homo sapiens, PBMC, * = values obtained upon reassay.
Where [5] appears, read: * = values obtained upon reassay.

“Also recorded” adds a separate entry of the source.

The clearance is the volume of plasma or blood freed of the substance per unit of time. High values mean a high capacity for elimination, low ones a low capacity for elimination. A word on the IC50: it is the midpoint of a concentration-inhibition curve. Read a high IC50 as weaker potency in that assay.

Consider `O=C[C@H](CC(=O)O)NC(=O)[C@@H]1CCCN2C(=O)CCN(NC(=O)c3ccccc3)C(=O)N12` [Compound 265, [3S(4S)]3-(7-Benzamido-6,10-dioxo-1,2,3,4,7,8,9,10-octahydro-6H-pyridazino[1,2-a][1,2,4]triazepine-4-carboxamido)-4-oxobutanoic acid], for which, in data set [1] (iv, mouse), the clearance was found to be 23 mL/min/kg. This compound also showed an IC50 in data set [2] (setting [4]) of 4.3 µM. In addition, the “IP % Inhibition” value in data set [3] (% inhibition of IL-β production, LPS-challenged mice, IP, 50 mg/kg (Table 3)) came out at 30%. For the same compound, the “POS Inhibition” value in data set [3] (% inhibition of IL-β production, LPS-challenged mice, PO, 50 mg/kg (Table 3)) came to 27%.

The compound `O=C[C@H](CC(=O)O)NC(=O)[C@@H]1CCCN2CCC[C@H](NC(=O)c3ccccc3)C(=O)N12` [Compound 246] showed a clearance in data set [1] (iv, mouse) of 31 mL/min/kg. The compound further displayed an IC50 in data set [2] (setting [4]) of 0.95 µM.

Turning to `O=C(O)C[C@H](NC(=O)[C@@H]1CCCN2C(=O)CC[C@H](NC(=O)c3ccccc3)C(=O)N12)C(=O)c1nc2cc(Cl)cc(Cl)c2o1` [Compound 223e, [3S(1S,9S)]3-(9-Benzoylamino-6,10-dioxo-1,2,3,4,7,8,9,10-octahydro-6H-pyridazino-[1,2-a][1,2]diazepine-1-carboxamido)-4-(5,7-dichlorobenzoxazol-2-yl)-4-oxobutanoic acid], the clearance in data set [1] (iv, mouse) was found to be 89 mL/min/kg. Further, in data set [2] (setting [4]), half-maximal inhibition (IC50) required 3 µM.

In the case of `O=C(O)CC(NC(=O)[C@@H]1CCCN2C(=O)CC[C@H](NC(=O)c3ccccc3)C(=O)N12)C(=O)CF` (stereo partly drawn) [Compound 230e, [3RS,(1S,9S)]3-(9-Benzoylamino-6,10-dioxo-1,2,3,4,7,8,9,10-octahydro-6H-pyridazino[1,2-a][1,2]-diazepine-1-carboxamido)-5-fluoro-4-oxopentanoic acid], the “Clearance Mouse, i.v.” value in data set [1] (mouse, i.v.) stood at 67 mL/min/kg. Besides, the IC50 in data set [2] (setting [5]) worked out at 0.325 µM.

Regarding `COC(=O)N[C@H]1CCC(=O)N2CCC[C@@H](C(=O)N[C@@H](CC(=O)O)C(=O)COC(=O)c3c(C)cccc3C)N2C1=O` [Compound 285, [3S(1S,9S)]5-(2,6-Dimethylbenzoyloxy)-3-[6,10-dioxo-9-(methoxycarbonyl)amino-1,2,3,4,7,8,9,10-octahydro-6H-pyridazino[1,2-a][1,2]diazepine-1-carboxamido]-4-oxopentanoic acid], the clearance in data set [1] (iv, mouse) was determined as 130 mL/min/kg. Also, in data set [2] (setting [4]), the midpoint of inhibition, the IC50, lay at 0.81 µM.

In data set [1] (iv, mouse), `O=C(O)C[C@H](NC(=O)[C@@H]1CCCN2C(=O)CC[C@H](NC(=O)c3ccccc3)C(=O)N12)C(=O)CSCc1ccccc1Cl` [Compound 226e, [3S(1S,9S)]3-(9-Benzoylamino-6,10-dioxo-1,2,3,4,7,8,9,10-octahydro-6H-pyridazino[1,2-a][1,2]-diazepine-1-carboxamido)-5-(2-chlorophenyl)methylthio-4-oxopentanoic acid] yielded a clearance of 109 mL/min/kg. For the same compound, the IC50 in data set [2] (setting [4]) came out at 1.1 µM.

`COC(=O)N[C@H]1CCC(=O)N2CCC[C@@H](C(=O)N[C@@H](CC(=O)O)C(=O)COC(=O)c3c(Cl)cccc3Cl)N2C1=O` [Compound 284, [3S(1S,9S)]5-(2,6-Dichlorobenzoyloxy)-3-[6,10-dioxo-9-(methoxycarbonyl)amino-1,2,3,4,7,8,9,10-octahydro-6H-pyridazino[1,2-a][1,2]diazepine-1-carboxamido]-4-oxopentanoic acid]: the clearance in data set [1] (iv, mouse) was found to be 77 mL/min/kg. Further, half-maximal inhibition in data set [2] (setting [4]) (IC50) required 0.47 µM.

Turning to `O=C[C@H](CC(=O)O)NC(=O)[C@@H]1CCCN2C(=O)CC[C@H](NC(=O)c3ccc4c(c3)OCO4)C(=O)N12` [Compound 415, [3S(1S,9S)]3-[6,10-Dioxo-9-(3,4-methylenedioxybenzoylamino)-1,2,3,4,7,8,9,10-octahydro-6H-pyridazino[1,2-a][1,2]diazepine-1-carboxamido]-4-oxobutanoic acid], in data set [1] (iv, mouse), the clearance came out at 26 mL/min/kg. The figures for the IC50 in data set [2] (setting [5]) and in data set [2] (setting [4]) were 1 µM and 0.99 µM, respectively.

In data set [1] (iv, mouse), `O=C[C@H](CC(=O)O)NC(=O)[C@@H]1CCCN2C(=O)CC[C@H](NC(=O)CCc3ccccc3)C(=O)N12` [Compound 47a, [3S(1S,9S)]3-(6,10-Dioxo-octahydro-9-(3-phenylpropionylamino)-6H-pyridazino[1,2-a][1,2]diazepine-1-carboxamido)-4-oxobutanoic acid] had a clearance of 79 mL/min/kg. In data set [2] (setting [4]), the IC50 came to 2.6 µM.

In turn, `COC(=O)N[C@H]1CCC(=O)N2CCC[C@@H](C(=O)N[C@@H](CC(=O)O)C(=O)CSc3ncccn3)N2C1=O` [Compound 511c, [3S(1S,9S)]3-[6,10-Dioxo-9-(methoxycarbonyl)-amino-1,2,3,4,7,8,9,10-octahydro-6H-pyridazino[1,2-a][1,2]diazepine-1-carboxamido]-5-(2-mercaptopyrimidine)-4-oxopentanoic acid] returned a clearance in data set [1] (iv, mouse, Table 17) of 78 mL/min/kg. In data set [2] (Homo sapiens, PBMC, Table 17), this compound returned an IC50 above 20 µM.

For `O=C(O)C[C@H](NC(=O)[C@@H]1CCCN2C(=O)CC[C@H](NC(=O)c3ccccc3)C(=O)N12)C(=O)COC(=O)c1c(Cl)cccc1Cl` [Compound 217e, [3S(1S,9S)]3-(9-Benzoylamino-6,10-dioxo-1,2,3,4,7,8,9,10-octahydro-6H-pyridazino[1,2-a][1,2]-diazepine-1-carboxamido)-5-(2,6-dichlorobenzoyloxy)-4-oxopentanoic acid], the clearance in data set [1] (iv, mouse) was above 50 mL/min/kg. The “mean plasma concentration at 60-120 minutes” value in data set [1] (male CD-1 mice, i.v. tail vein) is below 0.2 µg/mL. For the same compound, in data set [1] (mouse, plasma, iv, male CD-1 mice, i.v. tail vein, read-out: mean plasma level at 2 minutes), the concentration at 2 min was around 55 µg/mL. In data set [2] (setting [4]), this compound showed a half-inhibitory concentration (IC50) of 0.175 µM. The “inhibition of IL-1β secretion/production after IP administration” value in data set [3] (LPS-challenged CD1 mice, IP injection one hour after LPS, result in words) is “significant inhibition; also recorded: inhibits IL-1β production”.

For `CS(=O)(=O)N[C@H]1CCC(=O)N2CCC[C@@H](C(=O)N[C@@H](CC(=O)O)C(=O)COC(=O)c3c(Cl)cccc3Cl)N2C1=O` [Compound 138], the clearance in data set [1] (iv, mouse) worked out at 116 mL/min/kg. This compound returned an IC50 in data set [2] (setting [4]) of 0.9 µM.

`O=C[C@H](CC(=O)O)NC(=O)[C@@H]1CCCN2C(=O)CC[C@H](NC(=O)c3cccc4ccccc34)C(=O)N12` [Compound 408, [3S(1S,9S)]3-[6,10-Dioxo-9-(naphth-1-oylamino)-1,2,3,4,7,8,9,10-octahydro-6H-pyridazino[1,2-a][1,2]diazepine-1-carboxamido]-4-oxobutanoic acid] showed a clearance in data set [1] (iv, mouse) of 41 mL/min/kg. Besides, half-maximal inhibition in data set [2] (setting [4]) (IC50) required 1.1 µM.

In the case of `N#C[C@H](CC(=O)O)NC(=O)[C@@H]1CCCN2C(=O)CC[C@H](NC(=O)c3ccccc3)C(=O)N12` [Compound 232e, [3S(1S,9S)]9-(Benzoylamino)-3-[6,10-dioxo-1,2,3,4,7,8,9,10-octahydro-6H-pyridazino-[1,2-a][1,2]diazepine-1-carboxamido]-3-cyanopropanoic acid], the clearance in data set [1] (iv, mouse) is 22 mL/min/kg. In data set [2] (setting [4]), this compound came in with an IC50 of 4.5 µM.

In data set [1] (iv, mouse), `CC(=O)N1C[C@H](NC(=O)c2ccc3ccccc3c2)C(=O)N(CC(=O)N[C@H](C=O)CC(=O)O)c2ccccc21` [Compound 605n] showed a clearance of 28 mL/min/kg. In data set [2] (setting [4]), this compound showed an IC50 of 2.1 µM.

`O=C1C[C@H](NC(=O)[C@@H]2CCCN3C(=O)CC[C@H](NC(=O)c4cccc5ccccc45)C(=O)N23)C(OCc2ccccc2)O1` (stereo partly drawn) [Compound 213v, [1S,9S(2RS,3S)]N-(2-Benzyloxy-5-oxotetrahydrofuran-3-yl)-6,10-dioxo-9-(naphth-1-oylamino)-1,2,3,4,7,8,9,10-octahydro-6H-pyridazino[1,2-a][1,2]diazepine-1-carboxamide] returned a clearance in data set [1] (iv, mouse, Table 17) of 41 mL/min/kg. Further, in data set [2] (Homo sapiens, PBMC, Table 17), the IC50 came to 1.1 µM.

Turning to `COc1cccc2nc(C(=O)[C@H](CC(=O)O)NC(=O)[C@@H]3CCCN4C(=O)CC[C@H](NC(=O)CCc5ccccc5)C(=O)N34)oc12` [Compound 135a], the clearance in data set [1] (iv, mouse) was above 100 mL/min/kg. The compound also returned an IC50 in data set [2] (setting [4]) of 2.8 µM.

In the case of `CC(=O)N[C@H]1CCC(=O)N2CCC[C@@H](C(=O)N[C@@H](CC(=O)O)C(=O)COC(=O)c3c(Cl)cccc3Cl)N2C1=O` [Compound 217c, [3S(1S,9S)]3-(9-Acetylamino-6,10-dioxo-1,2,3,4,7,8,9,10-octahydro-6H-pyridazino-[1,2-a][1,2]diazepine-1-carboxamido)-5-(2,6-dichlorobenzoyloxy)-4-oxopentanoic acid], the clearance in data set [1] (iv, mouse) was 70 mL/min/kg. In data set [2] (setting [4]), this compound displayed an IC50 of 1.7 µM.

For `O=C(O)C[C@H](NC(=O)[C@@H]1CCCN2C(=O)CC[C@H](NC(=O)CCc3ccccc3)C(=O)N12)C(=O)COC(=O)c1c(Cl)cccc1Cl` [Compound 136], the clearance in data set [1] (iv, mouse) came out at 93 mL/min/kg. The IC50 in data set [2] (setting [4]) amounted to 0.87 µM.

`O=C[C@H](CC(=O)O)NC(=O)[C@@H]1CCCN2C(=O)CC[C@H](NC(=O)c3ccsc3)C(=O)N12` [Compound 410] had a clearance in data set [1] (iv, mouse) of 32 mL/min/kg. Besides, it took 2 µM to reach half-maximal inhibition in data set [2] (setting [4]) (IC50).
